From publication PMC4129416, “YLT192, a Novel, Orally Active Bioavailable Inhibitor of VEGFR2 Signaling with Potent Antiangiogenic Activity and Antitumor Efficacy in Preclinical Models” (Scientific Reports, 2014)
Entries after “also recorded” stand apart in the source; their conditions may differ.

What was measured:
[1] = tested on: HCT116 cells; test: Western blot of apoptosis-related proteins caspase 3 and Bax; format: cell-based, human; settings: 48 hours
Description: Figure 4 Inhibitory effects of YLT192 on tumor cells. (A) YLT192 inhibited U251 and HCT116 cells proliferation. The EdU incorporation assay was conducted on U251 and HCT116 cells after treated with YLT192 for 24 hours. The EdU-positive (red fluorescent staining) cells and Hoechst staining (blue fluorescent staining) cells represented proliferating and total cells in the fluorescent images, respectively (100×). Quantification was shown on the right panels. (B) YLT192 induced apoptosis of HCT116 cells. HCT116 cells were treated with YLT192 or vehicle for 48 hours followed by flow cytometric analysis of annexin V-FITC and PI staining. The proportion of early apoptotic cells (annexin V positive) and late apoptotic cells (annexin V and PI positive cells) were shown. Typical apoptosis-related proteins caspase 3 and Bax were detected by western blot. Each has the expression of β-actin as internal control. The full size blots were shown in the Supplemental Figure S6 online. […] U251 and HCT116 cells were treated with YLT192 or vehicle for 48 hours and the expression of protein in different signaling pathways were detected by western blot with specific antibodies. […]
Supplementary Figure S7. […] HCT116 cells were treated with YLT192 or vehicle for 48 hours and then typical apoptosis-related proteins caspase 3 and Bax were detected by western blot. […]

[2] = tested on: zebrafish intersegmental vessels; test: Transgenic zebrafish (FLK-1: EGFP) embryonic angiogenesis model; format: in vivo; settings: 5 μM; zebrafish embryos treated 15 hpf, imaged 30 hpf
Text: To test the anti-angiogenesis effects of YLT192 in vivo, we used a FLK-1 promoter enhanced green fluorescent protein (EGFP) transgenic zebrafish model.
Figure 3 YLT192 inhibited angiogenesis in vivo. (A) Fluorescent images of 30 hpf zebrafish treated with vehicle or concentrations of YLT192. ISV growth was inhibited by YLT192. One representative experiment of three is shown. Data are means ± SEM (n = 10 per group), *P < 0.05, **P < 0.01. Scale bars represent 100 μm. […] Frozen sections of HCT116 tumors were tested by immunohistochemistry analysis with anti-CD31 antibody. Representative images of the tumor vasculature from vehicle and YLT192 treated mice were shown. The fields were averaged in each tumor, and the averages for each animal were used to give the final mean ± SD (n = 6 mice per group). *P < 0.05, **P < 0.01. Scale bars represent 100 μm. […] Alginate beads containing 5 × 10^4 CT26 cells were implanted s.c. into the backs of mice. Mice were then orally treated with YLT192 or vehicle once daily. Beads were surgically removed 14 days later and FITC-dextran was quantified. […] Data are means ± SD (n = 6 mice per group), *P < 0.05, **P < 0.01. Scale bars represent 500 μm.
The transgenic zebrafish (FLK-1: EGFP) was used in the experiments. The embryos were grown and maintained as described previously. […]

[3] = target: VEGFR2 (Homo sapiens, UniProt P35968); test: Cellular thermal shift assay (target engagement) in intact HUVECs; format: binding; parameters: stabilize the target in intact HUVECs; endogenous in cells; host or cells: primary HUVECs (passages 3-8); settings: 40 μM, 3 h, 40-49°C
Sequence of VEGFR2 (P35968 20-1356): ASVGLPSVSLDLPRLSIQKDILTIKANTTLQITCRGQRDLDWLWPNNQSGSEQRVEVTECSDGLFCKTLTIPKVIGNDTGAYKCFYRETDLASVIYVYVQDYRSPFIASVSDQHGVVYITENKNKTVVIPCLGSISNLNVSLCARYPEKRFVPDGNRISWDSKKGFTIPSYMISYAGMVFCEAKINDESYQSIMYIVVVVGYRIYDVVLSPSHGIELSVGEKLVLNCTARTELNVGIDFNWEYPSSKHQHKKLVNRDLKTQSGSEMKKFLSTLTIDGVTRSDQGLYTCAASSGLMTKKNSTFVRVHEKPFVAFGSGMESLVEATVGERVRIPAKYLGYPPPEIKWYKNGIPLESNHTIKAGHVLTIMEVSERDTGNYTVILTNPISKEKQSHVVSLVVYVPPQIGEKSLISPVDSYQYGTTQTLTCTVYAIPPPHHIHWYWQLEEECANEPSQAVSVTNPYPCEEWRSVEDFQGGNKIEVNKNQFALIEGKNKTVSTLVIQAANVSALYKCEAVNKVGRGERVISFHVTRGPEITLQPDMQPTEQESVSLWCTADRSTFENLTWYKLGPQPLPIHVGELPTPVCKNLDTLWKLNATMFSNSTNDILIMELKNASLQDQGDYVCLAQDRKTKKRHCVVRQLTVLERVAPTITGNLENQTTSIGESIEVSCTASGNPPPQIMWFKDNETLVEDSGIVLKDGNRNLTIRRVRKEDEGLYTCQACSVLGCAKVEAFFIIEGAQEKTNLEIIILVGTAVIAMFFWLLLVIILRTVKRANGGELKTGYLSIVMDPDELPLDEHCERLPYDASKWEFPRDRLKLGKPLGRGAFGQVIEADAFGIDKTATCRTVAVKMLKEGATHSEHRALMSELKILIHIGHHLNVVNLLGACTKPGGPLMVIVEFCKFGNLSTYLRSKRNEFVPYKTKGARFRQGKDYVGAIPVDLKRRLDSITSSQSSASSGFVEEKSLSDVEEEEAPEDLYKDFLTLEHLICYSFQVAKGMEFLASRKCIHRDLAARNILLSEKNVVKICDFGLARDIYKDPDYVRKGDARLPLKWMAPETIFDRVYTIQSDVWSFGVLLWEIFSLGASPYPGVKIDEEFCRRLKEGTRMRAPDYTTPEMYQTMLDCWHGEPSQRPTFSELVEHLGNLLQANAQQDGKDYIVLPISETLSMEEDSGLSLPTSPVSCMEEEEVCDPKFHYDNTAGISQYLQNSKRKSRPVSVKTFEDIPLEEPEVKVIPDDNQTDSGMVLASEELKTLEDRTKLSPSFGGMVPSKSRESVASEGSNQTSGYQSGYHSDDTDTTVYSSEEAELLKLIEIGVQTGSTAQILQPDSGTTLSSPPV
Description: Then we investigate whether YLT192 bind to VEGFR2 in intact HUVECs. If VEGFR2 is bound by YLT192, it will be stabilized by the physical engagement.
The ability of YLT192 to interact with, and thereby stabilize the target in intact HUVECs, was evaluated as described by Molina et al.[22] with some modifications. Briefly, subconfluent HUVECs were incubated with 40 μM YLT192 or vehicle for 3 h. Then the cells were detached with trypsin and collected in TBS containing complete protease inhibitor cocktail. The cells were divided into 4 aliquots and heated individually at 40, 43, 46, 49°C for 3 minutes. Subsequently, the cell suspensions were freeze-thawed three times using liquid nitrogen. Soluble proteins were separated from the precipitated fraction by centrifugation at 17,000 g for 20 min. The proteins were then detected with immunoblot analysis using the VEGFR2-antibody.

[4] = tested on: HCT116 tumor xenografts; test: Immunohistochemistry of HCT116 xenograft tumor sections (CD31, Ki67, p-p44/42 MAPK, TUNEL); format: in vivo, mice
Description: To better understand the mechanism of antitumor activities in vivo, immunohistochemistry was performed using tumor tissues isolated from HCT116 at the end of the treatment. […] Furthermore, we investigated the activity of YLT192 on apoptosis in HCT116 xenograft tumors by terminal deoxynucleotidyl transferase (dUTP) nick end labeling (TUNEL) staining.
Tumour tissues obtained from the mice bearing HCT116 tumors were subjected to immunohistological analysis. Briefly, at the end of the treatment, mice were killed and tumor tissues were obtained. Then CD31 staining was conducted using frozen sections of tissue embedded in optimum cutting temperature[49] and immunohistological detection of anti-Ki67 and p-p44/42 MAPK were performed according to the manufacture's instructions using paraffin-embedded sections of tumor[50]. Apoptotic cells in the tumor tissue were detected by terminal deoxynucleotidyl transferase-mediated dUTP nick end-labeling (TUNEL) staining using an apoptotic cell detection kit (Merck Millipore).

CNC(=O)c1cc(Oc2ccc(NC(=O)c3cccc(OC)c3)cc2)ccn1 [YLT192]
expression of pro-apoptotic Bax [1]: increased
pro-caspase-3 and its pro-apoptotic cleaved forms [1]: a reduction of pro-caspase-3 and an increase in levels of its pro-apoptotic cleaved forms
formation of intersegmental vessels [2]: considerably blocked; also recorded: significantly inhibited
thermal stabilization of VEGFR2 [3]: efficiently stabilized VEGFR2
apoptotic cells in the tumor tissues, TUNEL staining ([4]; 100 mg/kg): increased apoptotic cells
phosphorylation of p44/42 MAPK (p-ERK) in tumor tissues ([4]; 100 mg/kg): significant decrease
reduction of microvessel density (MVD) ([4]; 100 mg/kg oral daily, anti-CD31, vs vehicle): 69%
Ki67 staining in tumor tissues ([4]; 50 and 100 mg/kg, end of treatment): significant reduction
